The subject of assay [1] is creatinase from Alcalingenes. The settings on record: reported in patent US 5,451,520; substrate creatine taken from context (b8); cited from earlier work.
Assay [2] concerns Erwinia sp. DSM 97-934 creatinase variant CT2m28 (N130D, I304L, I278T), SEQ ID NO: 16. The experiment in a line: Km determination, coupled creatinase activity assay. It is filed as biochemical. The settings on record: creatine substrate at 90, 45, 22.5, 11.3, 5.6 and 2.8 mM; 0.1 M potassium phosphate buffer pH 7.8; 25°C. On the procedure: (§1) The activity assay for creatinase and its variants was performed by using creatine as substrate and a coupled enzymatic reaction according to Guder, W. G., et al., J Clin Chem Clin Biochem 24 (1986) 889-902.
(§2) The reaction mixture was set up by combining the following reagents:
(§3) The assay for creatinase was carried out at 25°C and at the wavelength of 546 nm for 10 min. ΔE was calculated from the measurement points of 6 to 10 min.
(§4) For KM determination, creatinase activity was determined according to the assay procedure described in Example 3 using six different concentrations of creatine substrate: 90 mM, 45 mM, 22.5 mM, 11.3 mM, 5.6 mM and 2.8 mM.

Assay [3] deals with Erwinia sp. DSM 97-934 creatinase variant CT1m24 (N130D, I278T), SEQ ID NO: 10. The description is as above. The assay is classed as biochemical. The settings on record: creatine substrate at 90, 45, 22.5, 11.3, 5.6 and 2.8 mM; 0.1 M potassium phosphate buffer pH 7.8; 25°C. On the procedure: as §1, §2, §3, §4
In assay [4] the test system is Erwinia sp. DSM 97-934 creatinase variant CTqc2 (F59W, N130D, I278T), SEQ ID NO: 18. The assay is described as above. Conditions: creatine substrate at 90, 45, 22.5, 11.3, 5.6 and 2.8 mM; 0.1 M potassium phosphate buffer pH 7.8; 25°C. The assay is classed as biochemical. On the procedure:
as §1, §2, §3, §4

Assay [5] relates to Erwinia sp. DSM 97-934 creatinase variant CT2m10 (N130D, I278T, F395L), SEQ ID NO: 14. The assay is described as above. It is filed as biochemical. The settings on record: creatine substrate at 90, 45, 22.5, 11.3, 5.6 and 2.8 mM; 0.1 M potassium phosphate buffer pH 7.8; 25°C. On the procedure:
as §1, §2, §3, §4

The subject of assay [6] is Erwinia sp. DSM 97-934 creatinase, wild type, SEQ ID NO:2. The description is as above. It is filed as biochemical. Conditions: creatine substrate at 90, 45, 22.5, 11.3, 5.6 and 2.8 mM; 0.1 M potassium phosphate buffer pH 7.8; 25°C. On the procedure: as §1, §2, §3, §4
The test system of assay [7] is Erwinia sp. DSM 97-934 creatinase variant CTsd2 (N130D, M203V, I278T, F395L), SEQ ID NO: 20. Described as above. Conditions: creatine substrate at 90, 45, 22.5, 11.3, 5.6 and 2.8 mM; 0.1 M potassium phosphate buffer pH 7.8; 25°C. The assay is classed as biochemical. Here is the method: as §1, §2, §3, §4
The test system of assay [8] is Erwinia sp. DSM 97-934 creatinase variant CTsd7 (F59W, N130D, M203V, I278T, F395L), SEQ ID NO: 22. Described as above. Conditions: creatine substrate at 90, 45, 22.5, 11.3, 5.6 and 2.8 mM; 0.1 M potassium phosphate buffer pH 7.8; 25°C. The assay is classed as biochemical. On the procedure:
as §1, §2, §3, §4

Assay [9] relates to Erwinia sp. DSM 97-934 creatinase variant CT2m9 (N130D, M203V, I278T), SEQ ID NO: 12. The description is as above. The assay is classed as biochemical. Conditions: creatine substrate at 90, 45, 22.5, 11.3, 5.6 and 2.8 mM; 0.1 M potassium phosphate buffer pH 7.8; 25°C. Here is the method:
as §1, §2, §3, §4

The term Km denotes the substrate concentration at which the rate is half of its maximum. As for `CN(CC(=O)O)C(=N)N` [creatine], the Km in assay [1] was 13 mM; in assay [2] it was 4 mM; in assay [3], 8.2 mM; in assay [4], 6.6 mM; in assay [5], 3.4 mM; in [6], 4.3 mM. Also, the results for the Km in assay [7], in [8] and in assay [9] were 2.1 mM, 2 mM and 6.3 mM, respectively.

These data come from patent EP1298213A1, “Variants of an Erwinia-type creatinase” (Roche Diagnostics GmbH, priority 2001, dated 2003).
